Measurements as given in patent US11452717B2, “Small molecule activators of nicotinamide phosphoribosyltransferase (NAMPT) and uses thereof” (Sanford Burnham Prebys Medical Discovery Institute, priority 2017, dated 2022).

target: NAMPT enzyme (Homo sapiens (Human), UniProt P43490); assay: Enzyme Assay and NMN Detection (NAMPT reaction, fluorescence detection of NMN); assay type: biochemical; conditions: Table B-2; NAMPT activation, NMN formation
Summary of the method: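 NMN formed was read at ex380/em460 after acetophenone/KOH derivatization and formic acid addition, using a same-day calibration curve. Final conditions: NAMPT 16 nM, nicotinamide 5 uM, PRPP 6.25 uM, ATP 120 uM, pyrophosphatase 0.04 U/ml, pH 7.5 HEPES buffer with MgCl2 and TCEP, 2 h at room temperature.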

Chain of NAMPT enzyme (P43490 whole entry, species assumed): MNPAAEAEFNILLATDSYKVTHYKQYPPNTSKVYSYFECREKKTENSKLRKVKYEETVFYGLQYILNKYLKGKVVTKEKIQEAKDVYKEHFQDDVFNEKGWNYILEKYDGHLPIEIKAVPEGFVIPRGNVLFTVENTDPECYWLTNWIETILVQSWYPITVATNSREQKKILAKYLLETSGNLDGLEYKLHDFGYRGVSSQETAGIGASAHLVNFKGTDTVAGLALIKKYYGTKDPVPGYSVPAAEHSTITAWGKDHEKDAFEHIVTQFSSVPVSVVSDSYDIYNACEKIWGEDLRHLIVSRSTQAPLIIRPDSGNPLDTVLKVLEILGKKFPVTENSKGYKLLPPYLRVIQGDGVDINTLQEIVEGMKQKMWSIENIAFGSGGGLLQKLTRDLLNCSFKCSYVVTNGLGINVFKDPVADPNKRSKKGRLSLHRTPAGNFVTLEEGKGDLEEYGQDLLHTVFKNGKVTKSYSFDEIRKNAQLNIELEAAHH

| SMILES | EC50 [µM] |
| --- | --- |
| Cc1ccccc1NS(=O)(=O)c1ccc(NC(=O)NCc2ccncc2)cc1 [4-(3-Pyridin-4-ylmethyl-ureido)-N-o-tolyl-benzenesulfonamide] | 0.1 to 2 |
| O=C(NCc1ccncc1)Nc1ccc(S(=O)(=O)NCc2ccccc2OC(F)(F)F)cc1 [4-(3-Pyridin-4-ylmethyl-ureido)-N-(2-trifluoromethoxy-benzyl)-benzenesulfonamide] | < 0.1 |
| O=C(NCc1ccncc1)Nc1ccc(S(=O)(=O)N2Cc3ccccc3C2)cc1 [1-[4-(1,3-Dihydro-isoindole-2-sulfonyl)-phenyl]-3-pyridin-4-ylmethyl-urea] | 0.1 to 2 |

Second part, the compound after the results:

| EC50 [µM] | SMILES |
| --- | --- |
| 5 to 20 | CCN(C)C(=O)c1ccc(NC(=O)NCc2ccncc2)cc1 [N-ethyl-N-methyl-4-(3-(pyridin-4-ylmethyl)ureido)benzamide] |
| < 0.1 | O=C(NCc1ccncc1)Nc1ccc(NS(=O)(=O)c2ccccc2)cc1 [N-[4-(3-Pyridin-4-ylmethyl-ureido)-phenyl]-benzenesulfonamide] |
| 5 to 20 | CN(C)CCNC(=O)c1ccc(NC(=O)NCc2ccncc2)cc1 [N-(2-(dimethylamino)ethyl)-4-(3-(pyridin-4-ylmethyl)ureido)benzamide] |
| 0.1 to 2 | CN(C)S(=O)(=O)c1ccc(CNS(=O)(=O)c2ccc(NC(=O)NCc3ccncc3)cc2)cc1 [N,N-dimethyl-4-((4-(3-(pyridin-4-ylmethyl)ureido)phenylsulfonamido)methyl)benzenesulfonamide] |
| > 20 | COc1ccc(CNC(=O)c2ccc(NC(=O)NCc3ccncc3)cc2)cc1 [N-(4-methoxybenzyl)-4-(3-(pyridin-4-ylmethyl)ureido)benzamide] |
| > 20 | CCOC(=O)c1ccc(NC(=O)NCc2ccncc2N)cc1 [Ethyl 4-(3-((3-aminopyridin-4-yl)methyl)ureido)benzoate] |
| 0.1 to 2 | O=C(NCc1ccncc1)Nc1ccc(C(=O)Nc2cccc(Cl)c2)cc1 [N-(3-chlorophenyl)-4-(3-(pyridin-4-ylmethyl)ureido)benzamide] |
| > 20 | CCOC(=O)c1ccccc1NC(=O)NCc1ccncc1 [Ethyl 2-(3-(pyridin-4-ylmethyl)ureido)benzoate] |
| > 20 | O=C(NCc1ccncc1)Nc1ccc(C(=O)NCc2ccccc2Cl)cc1 [N-(2-chlorobenzyl)-4-(3-(pyridin-4-ylmethyl)ureido)benzamide] |
| 0.1 to 2 | O=C(NCc1ccncc1)Nc1ccc(S(=O)(=O)NCc2ccc(F)cc2)cc1 [N-(4-fluorobenzyl)-4-(3-(pyridin-4-ylmethyl)ureido)benzenesulfonamide] |
| 0.1 to 2 | N#Cc1ccc(NC(=O)c2ccc(NC(=O)NCc3ccncc3)cc2)cc1 [N-(4-cyanophenyl)-4-(3-(pyridin-4-ylmethyl)ureido)benzamide] |
| 5 to 20 | CCCN(C)C(=O)c1ccc(NC(=O)NCc2ccncc2)cc1 [N-methyl-N-propyl-4-(3-(pyridin-4-ylmethyl)ureido)benzamide] |

same assay, conditions: Table B-3; NAMPT activation, NMN formation

| EC50 [µM] | SMILES |
| --- | --- |
| > 20 | CCOC(=O)c1ccc(NC(=O)NCc2ccnc3ccccc23)cc1 [Ethyl 4-(3-(quinolin-4-ylmethyl)ureido)benzoate] |
| > 20 | O=C(NCc1cccnc1)Nc1ccc(F)cc1 [1-(4-Fluorophenyl)-3-(pyridin-3-ylmethyl)urea] |

same assay, conditions: Table B-4; NAMPT activation, NMN formation

| EC50 [µM] | SMILES |
| --- | --- |
| 0.1 to 2 | O=C(NCc1cn[nH]c1)Nc1ccc(S(=O)(=O)c2ccc(Cl)cn2)cc1 [1-[4-(5-Chloro-pyridine-2-sulfonyl)-phenyl]-3-(1H-pyrazol-4-ylmethyl)-urea] |
| 2 to 5 | CC(C)N1CCC(S(=O)(=O)c2ccc(NC(=O)NCc3cn[nH]c3)cc2)CC1 [1-[4-(1-Isopropyl-piperidine-4-sulfonyl)-phenyl]-3-(1H-pyrazol-4-ylmethyl)-urea] |
| > 20 | O=C(NCc1cn[nH]c1)Nc1ccc(-c2cccc3[nH]cnc23)cc1 [1-[4-(1H-Benzoimidazol-4-yl)-phenyl]-3-(1H-pyrazol-4-ylmethyl)-urea] |
| 0.1 to 2 | O=C(NCc1cn[nH]c1)Nc1ccc(S(=O)(=O)c2ccccc2-c2ccc(F)cc2)cc1 [1-[4-(4′-Fluoro-biphenyl-2-sulfonyl)-phenyl]-3-(1H-pyrazol-4-ylmethyl)-urea] |
| < 0.1 | O=C(NCc1cn[nH]c1)Nc1ccc(S(=O)(=O)c2ccccc2-c2cccc(F)c2)cc1 [1-[4-(3′-Fluoro-biphenyl-2-sulfonyl)-phenyl]-3-(1H-pyrazol-4-ylmethyl)-urea] |
| 0.1 to 2 | O=C(NCc1cn[nH]c1)Nc1ccc(Nc2nc(-c3cccc(F)c3)cs2)cc1 [1-{4-[4-(3-Fluoro-phenyl)-thiazol-2-ylamino]-phenyl}-3-(1H-pyrazol-4-ylmethyl)-urea] |

same assay, conditions: Table B-5; NAMPT activation, NMN formation

| EC50 [µM] | SMILES |
| --- | --- |
| 5 to 20 | O=C(NCc1cnco1)Nc1ccc(-c2ncc(-c3ccccc3)s2)cc1 [1-(Oxazol-5-ylmethyl)-3-(4-(5-phenylthiazol-2-yl)phenyl)urea] |
| 2 to 5 | O=C(NCc1cnco1)Nc1ccc(S(=O)(=O)c2ccc(Cl)cn2)cc1 [1-[4-(5-Chloro-pyridine-2-sulfonyl)-phenyl]-3-oxazol-5-ylmethyl-urea] |
| < 0.1 | O=C(NCc1cnco1)Nc1ccc(S(=O)(=O)c2cccc(Cl)c2)cc1 [1-(4-((3-Chlorophenyl)sulfonyl)phenyl)-3-(oxazol-5-ylmethyl)urea] |

same assay, conditions: Table B-6; NAMPT activation, NMN formation

| EC50 [µM] | SMILES |
| --- | --- |
| 2 to 5 | CC(C)CN1CCC(S(=O)(=O)c2ccc(NC(=O)NCc3ccncc3)cc2)CC1 [1-[4-(1-Isobutyl-piperidine-4-sulfonyl)-phenyl]-3-pyridin-4-ylmethyl-urea] |
| 0.1 to 2 | O=C(NCc1ccncc1)Nc1ccc(S(=O)(=O)c2ccc(Cl)cn2)cc1 [1-[4-(5-Chloro-pyridine-2-sulfonyl)-phenyl]-3-pyridin-4-ylmethyl-urea] |
| < 0.1 | O=C(NCc1ccncc1)Nc1ccc(S(=O)(=O)c2ccccc2-c2cccc(F)c2)cc1 [1-[4-(3′-Fluoro-biphenyl-2-sulfonyl)-phenyl]-3-pyridin-4-ylmethyl-urea] |
| < 0.1 | O=C(NCc1ccncc1)Nc1ccc(NS(=O)(=O)Cc2ccccc2Br)cc1 [C-(2-Bromo-phenyl)-N-[4-(3-pyridin-4-ylmethyl-ureido)-phenyl]-methanesulfonamide] |
| 0.1 to 2 | COc1ccc2c(c1)c(-c1ccc(NC(=O)NCc3ccncc3)cc1)nn2C [1-[4-(5-Methoxy-1-methyl-1H-indazol-3-yl)-phenyl]-3-pyridin-4-ylmethyl-urea] |
| 0.1 to 2 | Cc1ccc(S(=O)(=O)c2ccc(NC(=O)NCc3ccncc3)cc2)cn1 [1-[4-(6-Methyl-pyridine-3-sulfonyl)-phenyl]-3-pyridin-4-ylmethyl-urea] |
| 5 to 20 | Cn1nc(-c2ccc(NC(=O)NCc3ccncc3)cc2)c2cnccc21 [1-[4-(1-Methyl-1H-pyrazolo[4,3-c]pyridin-3-yl)-phenyl]-3-pyridin-4-ylmethyl-urea] |
| 0.1 to 2 | O=C(NCc1ccncc1)Nc1ccc(S(=O)(=O)c2ccccn2)cc1 [1-(4-(Pyridin-2-ylsulfonyl)phenyl)-3-(pyridin-4-ylmethyl)urea] |
| 2 to 5 | O=C(NCc1ccncc1)Nc1ccc(S(=O)(=O)c2ncccn2)cc1 [1-Pyridin-4-ylmethyl-3-[4-(pyrimidine-2-sulfonyl)-phenyl]-urea] |
| 0.1 to 2 | COc1ccc(S(=O)(=O)c2ccc(NC(=O)NCc3ccncc3)cc2)cn1 [1-[4-(6-Methoxy-pyridine-3-sulfonyl)-phenyl]-3-pyridin-4-ylmethyl-urea] |

| SMILES | EC50 [µM] |
| --- | --- |
| Cc1ccccc1-c1ccccc1S(=O)(=O)c1ccc(NC(=O)NCc2ccncc2)cc1 [1-(4-((2′-Methyl-[1,l′-biphenyl]-2-yl)sulfonyl)phenyl)-3-(pyridin-4-ylmethyl)urea] | 0.1 to 2 |
